Measurements reported in patent US20250255304A1, “HIGHLY TRA[…] CONTROLLING COMPOSITION” (ZM Crop Protection Corporation, priority 2022, published 2025).

What was measured:
Assay type in all cases: in vivo
[1] = test system: Coptotermes formosanus Shiraki; assay: Test Example 2: primary transmission treatment effect
Method: (§1) A test agent solution containing 0.023 parts of dicloromezotiaz was prepared by adding 99.875 parts of water to 0.125 parts of the aqueous suspension composition shown in Formulation Example 1. As comparative examples, four types of commercially available neonicotinoid termite controlling agents and four types of slow-acting termite controlling agents shown in Table 2 were diluted with water at practical concentrations to prepare test agent solutions. The “agent concentration (%)” indicates the concentration of the active ingredient contained in each of the composition of the present invention and the termite controlling agents and the “test agent solution concentration (%)” indicates the concentration of the active ingredient in each of the prepared test agent solutions.
(§2) After 1.2 g of each of the test agent solutions of the example and the comparative examples diluted to a predetermined concentration and prepared was added to 4.8 g of soil, 6 g of the mixed soil was spread in a glass petri dish having a diameter of 50 mm and ten workers of Coptotermes formosanus Shiraki were released into the petri dish and exposed to the agent solution for 4 hours.

[2] = test system: Coptotermes formosanus Shiraki; assay: Test Example 2: secondary transmission treatment effect
Method: as §1, §2

[3] = test system: Coptotermes formosanus Shiraki; assay: Test Example 1: effect of agent on gypsum treated with test agent solution; conditions: dicloromezotiaz 0.023%, imidacloprid 0.1%, fipronil 0.03% test agent solution on gypsum
Method: A test agent solution containing 0.023 parts of dicloromezotiaz was prepared by adding 99.875 parts of water to 0.125 parts of the aqueous suspension composition shown in Formulation Example 1.
In a comparative example, an aqueous suspension composition prepared by adding an agent solution, wherein 99 parts of water was added to 1 part of a flowable containing 10.0 parts of imidacloprid and which contained 0.1 parts of imidacloprid and a drug solution, wherein 299 parts of water was added to 1 part of a flowable containing 9.1 parts of fipronil and which contained 0.03 parts of fipronil, uniformly mixing same was used as a test agent solution of a comparative example.
As the imidacloprid formulation and the fipronil formulation, commercially available termite controlling agents were used and diluted solutions at practical agent concentrations thereof were used as test agent solutions.
Gypsum was cured and spread in a glass petri dish having a diameter of 90 mm, 15 ml of each of the test agent solution of the example and the test agent solution of the comparative example was uniformly dropped on the entire surface of the gypsum. Thereafter, ten workers of Coptotermes formosanus Shiraki were released into the petri dish and the petri dish was covered and left to stand in a thermostatic chamber (25° C./relative humidity 60%).
The number of abnormal termites and the number of dead termites among the released termites (Coptotermes formosanus Shiraki) were observed every one hour from immediately after the release of the termites (Coptotermes formosanus Shiraki) until ten hours passed and the total number of the abnormal termite rate and the dead termite rate was calculated as the abnormal or dead termite rate (%) according to [Expression 1] below and the rates of expression of the effects of the respective agents were compared. Each test agent was prepared in one petri dish as one plot and the test was carried out in two replicates.

[4] = test system: Coptotermes formosanus Shiraki; assay: Test Example 3: extirpation test with dust formulation using simulated termite trails; conditions: active ingredient concentration 50%
[5] = after 1 day, Table 4, dicloromezotiaz 0.023%, chlorfenapyr 0.11%, clothianidin 0.05%, dinotefuran 0.20%, thiamethoxam 0.10%, broflanilide 0.03% solution in soil
[6] = after 3 days, Table 4, dicloromezotiaz 0.023%, chlorfenapyr 0.11%, clothianidin 0.05%, dinotefuran 0.20%, thiamethoxam 0.10%, broflanilide 0.03% solution in soil
[7] = after 7 days, Table 4, dicloromezotiaz 0.023%, chlorfenapyr 0.11%, clothianidin 0.05%, dinotefuran 0.20%, thiamethoxam 0.10%, broflanilide 0.03% solution in soil
[8] = after 14 days, Table 4, dicloromezotiaz 0.023%, chlorfenapyr 0.11%, clothianidin 0.05%, dinotefuran 0.20%, thiamethoxam 0.10%, broflanilide 0.03% solution in soil
[9] = after 21 days, Table 4, dicloromezotiaz 0.023%, chlorfenapyr 0.11%, clothianidin 0.05%, dinotefuran 0.20%, thiamethoxam 0.10%, broflanilide 0.03% solution in soil
[10] = after 1 day, Table 6, dicloromezotiaz 0.023%, chlorfenapyr 0.11%, clothianidin 0.05%, dinotefuran 0.20%, thiamethoxam 0.10%, broflanilide 0.03% solution in soil
[11] = after 3 days, Table 6, dicloromezotiaz 0.023%, chlorfenapyr 0.11%, clothianidin 0.05%, dinotefuran 0.20%, thiamethoxam 0.10%, broflanilide 0.03% solution in soil
[12] = after 7 days, Table 6, dicloromezotiaz 0.023%, chlorfenapyr 0.11%, clothianidin 0.05%, dinotefuran 0.20%, thiamethoxam 0.10%, broflanilide 0.03% solution in soil
[13] = after 14 days, Table 6, dicloromezotiaz 0.023%, chlorfenapyr 0.11%, clothianidin 0.05%, dinotefuran 0.20%, thiamethoxam 0.10%, broflanilide 0.03% solution in soil
[14] = after 21 days, Table 6, dicloromezotiaz 0.023%, chlorfenapyr 0.11%, clothianidin 0.05%, dinotefuran 0.20%, thiamethoxam 0.10%, broflanilide 0.03% solution in soil
[15] = after 1 day, Table 3, dicloromezotiaz 0.023%, fipronil 0.03%, imidacloprid 0.10%, chlorantraniliprole 0.05% solution in soil
[16] = after 3 days, Table 3, dicloromezotiaz 0.023%, fipronil 0.03%, imidacloprid 0.10%, chlorantraniliprole 0.05% solution in soil
[17] = after 7 days, Table 3, dicloromezotiaz 0.023%, fipronil 0.03%, imidacloprid 0.10%, chlorantraniliprole 0.05% solution in soil
[18] = after 14 days, Table 3, dicloromezotiaz 0.023%, fipronil 0.03%, imidacloprid 0.10%, chlorantraniliprole 0.05% solution in soil
[19] = after 21 days, Table 3, dicloromezotiaz 0.023%, fipronil 0.03%, imidacloprid 0.10%, chlorantraniliprole 0.05% solution in soil
[20] = after 1 day, Table 5, dicloromezotiaz 0.023%, fipronil 0.03%, imidacloprid 0.10%, chlorantraniliprole 0.05% solution in soil
[21] = after 3 days, Table 5, dicloromezotiaz 0.023%, fipronil 0.03%, imidacloprid 0.10%, chlorantraniliprole 0.05% solution in soil
[22] = after 7 days, Table 5, dicloromezotiaz 0.023%, fipronil 0.03%, imidacloprid 0.10%, chlorantraniliprole 0.05% solution in soil
[23] = after 14 days, Table 5, dicloromezotiaz 0.023%, fipronil 0.03%, imidacloprid 0.10%, chlorantraniliprole 0.05% solution in soil
[24] = after 21 days, Table 5, dicloromezotiaz 0.023%, fipronil 0.03%, imidacloprid 0.10%, chlorantraniliprole 0.05% solution in soil

SMILES	Abnormal or dead termite rate (%) [1, 5] [%]	Abnormal or dead termite rate (%) [1, 6] [%]	Abnormal or dead termite rate (%) [1, 7] [%]	Abnormal or dead termite rate (%) [1, 8] [%]	Abnormal or dead termite rate (%) [1, 9] [%]	Abnormal or dead termite rate (%) [2, 10] [%]	Abnormal or dead termite rate (%) [2, 11] [%]	Abnormal or dead termite rate (%) [2, 12] [%]	Abnormal or dead termite rate (%) [2, 13] [%]	Abnormal or dead termite rate (%) [2, 14] [%]	also measured
CN/C(=N/CC1CCOC1)N[N+](=O)[O-] (stereo not shown) [Dinotefuran]	93	94	96	98	99	24	18	16	18	22	–
O=[N+]([O-])NC1=NCCN1Cc1ccc(Cl)nc1 [Imidacloprid]	–	–	–	–	–	–	–	–	–	–	Abnormal or dead termite rate (%) ([3]; time elapsed 1 h): 100%; Abnormal or dead termite rate (%) ([3]; time elapsed 2 h): 100%; Abnormal or dead termite rate (%) ([3]; time elapsed 3 h): 100%; Abnormal or dead termite rate (%) ([3]; time elapsed 4 h): 100%; Abnormal or dead termite rate (%) ([3]; time elapsed 5 h): 100%; Abnormal or dead termite rate (%) ([3]; time elapsed 6 h): 100%; Abnormal or dead termite rate (%) ([3]; time elapsed 7 h): 100%; Abnormal or dead termite rate (%) ([3]; time elapsed 8 h): 100%; Abnormal or dead termite rate (%) ([3]; time elapsed 9 h): 100%; Abnormal or dead termite rate (%) ([3]; time elapsed 10 h): 100%; Abnormal or dead termite rate (%) [1, 15]: 92%; Abnormal or dead termite rate (%) [1, 16]: 22%; Abnormal or dead termite rate (%) [1, 17]: 11%; Abnormal or dead termite rate (%) [1, 18]: 14%; Abnormal or dead termite rate (%) [1, 19]: 15%; Abnormal or dead termite rate (%) [2, 20]: 0%; Abnormal or dead termite rate (%) [2, 21]: 1.1%; Abnormal or dead termite rate (%) [2, 22]: 1.1%; Abnormal or dead termite rate (%) [2, 23]: 1.1%; Abnormal or dead termite rate (%) [2, 24]: 1.2%
CN1COCN(Cc2cnc(Cl)s2)/C1=N\[N+](=O)[O-] [Thiamethoxam]	98	91	98	95	96	0	0	3.3	3.3	4.4	–
CN(C(=O)c1ccccc1)c1cccc(C(=O)Nc2c(Br)cc(C(F)(C(F)(F)F)C(F)(F)F)cc2C(F)(F)F)c1F [Broflanilide]	100	73	48	53	56	2.2	0	3.3	5.6	6.7	–
CNC(=O)c1cc(Cl)cc(C)c1NC(=O)c1cc(Br)nn1-c1ncccc1Cl [Chlorantraniliprole]	–	–	–	–	–	–	–	–	–	–	Abnormal or dead termite rate (%) [1, 15]: 98%; Abnormal or dead termite rate (%) [1, 16]: 100%; Abnormal or dead termite rate (%) [1, 17]: 85%; Abnormal or dead termite rate (%) [1, 18]: 80%; Abnormal or dead termite rate (%) [1, 19]: 85%; Abnormal or dead termite rate (%) [2, 20]: 10%; Abnormal or dead termite rate (%) [2, 21]: 2.2%; Abnormal or dead termite rate (%) [2, 22]: 1.1%; Abnormal or dead termite rate (%) [2, 23]: 2.2%; Abnormal or dead termite rate (%) [2, 24]: 7.8%
CCOCn1c(-c2ccc(Cl)cc2)c(C#N)c(Br)c1C(F)(F)F [Chlorfenapyr]	89	80	89	100	100	0	0	3.3	7.8	31	–
N#Cc1ccc(CC(=NNC(=O)Nc2ccc(OC(F)(F)F)cc2)c2cccc(C(F)(F)F)c2)cc1 (mixture of isomers) [Metaflumizone, metaflumizone]	–	–	–	–	–	–	–	–	–	–	Abnormal or dead termite rate (%) ([4]; 1 h): 0%; Abnormal or dead termite rate (%) ([4]; 2 h): 0%; Abnormal or dead termite rate (%) ([4]; 3 h): 0%; Abnormal or dead termite rate (%) ([4]; 4 h): 0%; Abnormal or dead termite rate (%) ([4]; 5 h): 0%; Abnormal or dead termite rate (%) ([4]; 6 h): 0%; Abnormal or dead termite rate (%) ([4]; 7 h): 0%; Abnormal or dead termite rate (%) ([4]; 1 day): 100%; Abnormal or dead termite rate (%) ([4]; 2 days): 100%; Abnormal or dead termite rate (%) ([4]; 3 days): 100%; Abnormal or dead termite rate (%) ([4]; 7 days): 100%
CN/C(=N\[N+](=O)[O-])NCc1cnc(Cl)s1 [Clothianidin]	94	89	75	91	94	0	0	3.3	3.3	4.4	–
